In US10449208B2, “Antiviral prodrugs of tenofovir” (Merck Sharp & Dohme Corp., priority 2016, dated 2019):
Like-named read-outs stand apart in the source and are kept apart here.

Assays:
[1] = Prodrug stability assay in bio-relevant media (FaSSIF with Pancreatin, simulated gastrointestinal tract conditions); type: in vitro ADME; settings: % parent prodrug remaining at 5 h vs 0 h, 37° C., 0.5 mg/mL Pancreatin in FaSSIF, HPLC area ratio
Protocol: Prodrug Stability Assay in Bio-Relevant Media
The following assay was employed to evaluate the stability of the prodrugs in simulated gastrointestinal tract conditions. Preparation of fasted state simulated intestinal fluid (FaSSIF) using Phares SIF Powder was carried out according to protocols from Phare Drug Delivery AG (Baselland, Switzerland). For sample preparation, 10 μL stock solutions (10 mM) of prodrug substance in DMSO was added to 990 μL of 0.5 mg/mL Pancreatin solution (Fisher CAS#8049-47-6) in FaSSIF. Two samples were prepared for each compound at initial. If the sample was clear solution at the beginning, ran one sample directly as initial by HPLC; if the sample was not clear at starting, diluted the sample by 100% ACN. Put the other sample under 37° C. and observed the sample at 5 h time-point. At 5 h time point, if the sample was clear solution then performed HPLC analysis directly; if it was not clear solution, diluted the sample by 100% ACN and assayed by HPLC. All the samples were vortexed for 3 min and observed before injection. For the diluted samples, the area will be multiplied by a factor when data analysis. The analysis was carried out with an Agilent 1100 series HPLC with autosampler. The column was usually a Poroshell 120 EC -C18, 4.6×50 mm, 2.7 μm. The flow rate was 1.8 mL/min, and the injection volume was 5 or 10 μL. UV detection was in the range 210-400 nm. The mobile phase consisted of solvent A (water plus 10 mM tetrabutylammonium bromide) and solvent B (acetonitrile) with a gradient of 90% solvent A at 0 min changing to 95% solvent B over 6 min, maintained for 1.5 min, then reverting to 90% solvent A over 1.6 min. The area of the parent in prodrug at 5h time point was divided by the area of the parent in prodrug at 0 h time point, to generate the % claimed parent ratio, which are summarized in Table 2 for GI Tract stability.

HIV-1 (H9/IIIB strain) = assay: Multiple round HIV-1 infection assay (Viking assay) in MT4-GFP cells; type: cell-based; settings: Human immunodeficiency virus 1, IIIB, MT4-GFP cells infected with HIV-1 H9/IIIB, inhibition of reproductive ratio R0
Outline: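 MT4-gag-GFP cells infected overnight with HIV-1 H9/IIIB at MOI ~0.01, then incubated with compound (10-point 3-fold dilutions, typically 8.4 μM–0.42 nM) in RPMI with 10% or 50% normal human serum. Green cells counted at ~48 and ~72 h; IC50 from inhibition of reproductive ratio R0, 4-parameter fit.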

[2] = 10% normal human serum, read-out: Viking, IC50 (10% NHS)
[3] = 50% normal human serum, read-out: Viking, IC50 (50% NHS)

| SMILES | GI Tract stability [1] [%] | IC50 (HIV-1 (H9/IIIB strain); [2]) [nM] | IC50 (HIV-1 (H9/IIIB strain); [3]) [nM] |
| --- | --- | --- | --- |
| CC(C)OC(=O)[C@H](C)OP(=O)(CO[C@H](C)Cn1cnc2c(N)ncnc21)NC1(C(=O)OC(C)C)CC1 (stereo partly drawn) [Example 47, Isopropyl 1-((((((R)-1-(6-amino-9H-purin-9-yl)propan-2-yl)oxy)methyl)(((S)-1-isopropoxy-1-oxopropan-2-yl)oxy)phosphoryl)amino) cyclopropane-1-carboxylate] | 93.55 | 91.6 | 209 |
| CC(C)OC(=O)COP(=O)(CO[C@H](C)Cn1cnc2c(N)ncnc21)NC1(C(=O)OC(C)C)CCC1 (stereo partly drawn) [Example 49, Isopropyl 1-((((((R)-1-(6-amino-9H-purin-9-yl)propan-2-yl)oxy)methyl)(2-isopropoxy-2-oxoethoxy)phosphoryl)amino) cyclobutane-1-carboxylate] | 100.50 | 19.6 | 37 |
| CC(C)OC(=O)COP(=O)(CO[C@H](C)Cn1cnc2c(N)ncnc21)NC1(C(=O)OC(C)C)CCCCC1 (stereo partly drawn) [Example 51, Isopropyl 1-((((((R)-1-(6-amino-9H-purin-9-yl)propan-2-yl)oxy)methyl)(2-isopropoxy-2-oxoethoxy)phosphoryl)amino) cyclohexane-1-carboxylate] | 99.70 | 9.8 | 24.9 |
